These results are taken from PMC9414676, “Experimental Studies Indicate That ST-2223, the Antagonist of Histamine H3 and Dopamine D2/D3 Receptors, Restores Social Deficits and Neurotransmission Dysregulation in Mouse Model of Autism” (Pharmaceuticals, 2022).

Assay [1] has as its system histamine levels in BTBR mice brain. The experiment in a line: Histamine levels by LC-MS/MS in brain regions. In kind it is in vivo. More on the design: key to Histamine level: ↔: No significant alterations; ↑: significant increase; ↑↑: additional significant increase vs. ST-2223-treated mice; ↓: significant decrease. The conditions noted are these: ARP 1 mg/kg i.p. chronic, vs VEH-treated BTBR mice. The procedure:
(§1) All the mice were randomly divided into nine groups of 5–7 mice each. The mice were injected intraperitonially once daily for 21 days with different doses of ST2223 (2.5, 5, and 10 mg/kg, i.p.), ARP 1 mg/kg or vehicle (1% DMSO in 0.9% normal saline). Group I, B6 mice were injected with vehicle served as control. Group II, BTBR mice were treated with vehicle. Groups III–V, BTBR mice received i.p. injections of different doses of ST2223 (2.5, 5, and 10 mg/kg, i.p.), respectively. Group VI, BTBR mice were injected with ARP (1 mg/kg, i.p.). For abrogation studies, Group VII, BTBR mice were treated with ST2223 (5 mg/kg, i.p.) along with RAM (10 mg/kg, i.p.). Group VIII, B6 mice were co-injected with vehicle and RAM (10 mg/kg, i.p). All treatments and vehicle (VEH) were administered 30–45 min before each behavioral test. The doses of these drugs were selected based on previous reports. Behavioral testing was performed between 9:00 am and 3:00 pm in an order randomized by group and in the following sequence: social approach test (SAT) and open field locomotor test (OFL). The chronic treatment started one week before the behavioral test and was continued for a total of 21 days as described above (Figure 7). Following behavioral tests, i.e., on day 21 of systemic treatment, five of the animals were sacrificed. The animals were deeply anesthetized with pentobarbital (40 mg/kg, i.p., body weight). To wash out the blood, cardiac perfusion was carried out using 0.01 M phosphate-buffered saline (PBS) at pH 7.4. The brains were quickly removed and placed on an ice plate, where the cerebellum, hippocampus, prefrontal cortex, and striatum were excised from the brain and snap-frozen in liquid nitrogen for later LC-MS/MS analysis.
(§2) Perfusion was done on anesthetized animals using 1X PBS as described previously. Different regions of the brain were snap frozen. Frozen tissues were then weighed and homogenized in a 10-fold volume of acetonitrile. For 50mg of tissue, 500 µL of acetonitrile and Internal standard mix were added and homogenized. Homogenates were centrifuged at 15,000 rcf for 15 min at 4 °C. Tissue levels of dopamine, acetylcholine, histamine, and their metabolites were assessed using LC-MS/MS. LC-MS/MS analysis was conducted utilizing Waters BEH C18 COLUMN (2.1 × 100 mm, 1.7 µm) using Waters Acquity UPLC Binary Solvent Manager and FTN Sample Manager. The system was run in gradient mode with mobile phase A consisting of LC-MS GRADE WATER + 0.1% FORMIC ACID and mobile phase B consisting of 100% ACETONITRILE. Mobile phase was duly filtered through 0.2 µm filter and degassed ultrasonically for 15 min prior to use. Separations were performed at room temperature with 0.3 mL/min flow rate gradient starting with 90% of A for up to 0.5 min. Then, % of A was decreased gradually until it reached 20% at 2.5 min after which at 3 min %A was brought back to the initial condition and left for equilibration for 2 more minutes before the next injection (total 5 min run time). The injection volume was kept at 1 µL. Mass spectrometric detection was performed in multiple reaction monitoring (MRM) mode with positive electrospray ionization (ESI+) on Xevo TQS mass spectrometer (Waters, Milford, MA) equipped with an electrospray ionization (ESI) source and triple quadrupole mass analyzer. MRM transitions and instrument parameters were set by tuning the instrument by infusing each analyte. MRM transitions taken for quantification were 146.2 > 87.1 for Acetylcholine, 112.2 > 95.2 for Histamine, 154.1 > 137.2 for Dopamine, 150.2 > 91.3 for Acetylcholine D4, and […] > 99.3 for Histamine D4. Capillary Voltage, Source Offset, Source Temperature, De solvation Temperature, Cone Gas Flow, De solvation Gas Flow, Collision Gas Flow, Nebulizer Gas Flow were set as 3.0 (kV), 60.0 (V), 150 (°C), 550 (°C), 150 (L/Hr), 1000 (L/Hr), 0.13 (mL/min), and 7 (Bar), correspondingly. […]

Assay [2] deals with dopamine levels in BTBR mice brain. The experiment in a line: Dopamine levels by LC-MS/MS in brain regions. Set-up: key to Dopamine level: ↔: No significant alterations; ↑: significant increase; ↑↑: additional significant increase vs. ST-2223-treated mice; ↓: significant decrease. In kind it is in vivo. The conditions noted are these: ARP 1 mg/kg i.p. chronic, vs VEH-treated BTBR mice. The procedure: as §1, §2

Assay [3] relates to acetylcholine levels in BTBR mice brain. The experiment in a line: Acetylcholine levels by LC-MS/MS in brain regions. More on the design: key to Acetylcholine level: ↔: No significant alterations; ↑: significant increase; ↑↑: additional significant increase vs. ST-2223-treated mice; ↓: significant decrease. The assay is classed as in vivo. The conditions noted are these: for Acetylcholine level: ARP 1 mg/kg i.p. chronic, vs VEH-treated BTBR mice. The procedure:
as §1, §2

Assay [4] has as its system prefrontal cortex of B6 mice. More on the design: method as in PMID 16023290. The conditions noted are these: 0.3 mg/kg of ARP; cited from earlier work.
The test system of assay [5] is BTBR mice. The experiment in a line: Social approach test (SAT), social novelty preference (novel mouse vs familiar mouse). The assay is classed as in vivo. The settings on record: ARP 1 mg/kg i.p. chronic, p < 0.001. The procedure: as §1
The social approach test (SAT) was performed using an automated three-chamber device (EthoVision® Software, Noldus, The Netherlands) as previously described. The transparent polycarbonate chamber is rectangular and is composed of three interconnected partitions (homemade), which are separated by two sliding doors. […] For 10 min, the test mouse was allowed to explore all three chambers and cups, and the time spent interacting with NO and NM (sniffing) was automatically recorded by EthoVision® Software. […] The study mouse is allowed to explore the three chambers for 10 min, and the time spent for interacting with both mice was automatically recorded, to assess social novelty preference. […] To allow the direct comparison of social behavior between the treated groups, the sociability index (SI) and social novelty index (SNI) were calculated with the following formula, as previously described: SI=(Time exploring NM−Time exploring NO)/(Time exploring NM+Time exploring NO) SNI=(Time exploring NM−Time exploring FM)/(Time exploring NM+Time exploring FM)

Assay [6] relates to BTBR mice. The experiment in a line: Open field locomotor test (OFL), anxiety-like behavior and locomotion. In kind it is in vivo. The conditions noted are these: ARP 1 mg/kg i.p. chronic. The procedure: as §1
Open field locomotor test (OFL) systematically assesses exploratory activity based on subjecting an animal to an unfamiliar environment whose escape is prevented by surrounding walls. It is a model of anxiety-like behavior, suitable for assessing motor activity as a reaction to an unknown environment, i.e., locomotion motivated by exploration. Both general locomotor activity and anxiety-related behaviors were assessed as the mice were placed individually inside an open field arena (45 × 45 × 30 cm) and were allowed to move freely for 10 min [80]. Mice were introduced into the center area of the arena (23 × 23 cm) and given 5 min habituation before actual behaviors recording. The overall distance moved inside the complete arena and time spent in the center and periphery was recorded for 10 min using CCD camera-assisted motion tracking equipment and software program (EthoVision 3.1, Noldus Information Technology, The Netherlands). Measurements obtained included total distance traveled and center and periphery time spent for […]. After each testing sessions, chambers we cleaned with 70% ethanol, and enough time was allowed for ethanol evaporation and odor dissipation. When evaluating the results, more time spent in the center indicated low levels of anxiety-like behaviors and total distance travelled represented locomotor activity.

Assay [7] concerns BTBR mice. The experiment in a line: Social approach test (SAT), sociability (novel mouse vs novel object). In kind it is in vivo. The conditions noted are these: ARP 1 mg/kg i.p. chronic. The procedure: as §1
The social approach test (SAT) was performed using an automated three-chamber device (EthoVision® Software, Noldus, The Netherlands) as previously described. The transparent polycarbonate chamber is rectangular and is composed of three interconnected partitions (homemade), which are separated by two sliding doors. In brief, after 10 min of habituation, the study mouse was placed in the central chamber with the doors opened, and the mouse was given the choice to interact with either an empty plastic cup located in one side chamber, referred to as a novel object (NO), or a similar plastic cup with an unfamiliar mouse inside it located in the opposite chamber, referred to as a novel mouse (NM), which was matched in age, sex, and strain with test mouse. To avoid innate side preferences, the plastic cup for NO and NM were randomly placed in either chamber and the placement was changed between studies and between mice. For 10 min, the test mouse was allowed to explore all three chambers and cups, and the time spent interacting with NO and NM (sniffing) was automatically recorded by EthoVision® Software. Immediately after this session, a novel mouse is kept in the empty cup and is referred to as novel mouse (NM), and the mouse in the other cup from the earlier session is referred to as familiar mouse (FM). The study mouse is allowed to explore the three chambers for 10 min, and the time spent for interacting with both mice was automatically recorded, to assess social novelty preference. Eight groups of 7 mice/group were used for the SAT. To allow the direct comparison of social behavior between the treated groups, the sociability index (SI) and social novelty index (SNI) were calculated with the following formula, as previously described: SI=(Time exploring NM−Time exploring NO)/(Time exploring NM+Time exploring NO) SNI=(Time exploring NM−Time exploring FM)/(Time exploring NM+Time exploring FM)

Turning to `O=C1CCc2ccc(OCCCCN3CCN(c4cccc(Cl)c4Cl)CC3)cc2N1` [ARP, aripiprazole, reference compound], the “levels of histamine in brain regions” value in assay [1] (p < 0.05) was “increased the levels of histamine in the cerebellum, striatum, and hippocampus”. In addition, the results for the Histamine level result in assay [1] (Cerebellum), in assay [1] (Hippocampus) and in assay [1] (Prefrontal cortex) were “↑ ^b”, “↑ ^b” and “↔”, respectively. The figures for the Dopamine level entry in assay [2] (Cerebellum), in assay [2] (Hippocampus) and in assay [2] (Prefrontal cortex) were “↓^b”, “↓^b” and “↔”, respectively. The “acetylcholine levels” value in assay [3] (ARP 1 mg/kg chronic, p < 0.05) was “signified increase in the levels of acetylcholine in the prefrontal cortex, cerebellum, and striatum tissues”. Further, the Acetylcholine level entry in assay [3] (Cerebellum) was “↑ ^b”; in assay [3] (Hippocampus) it was “↔”; in assay [3] (Prefrontal cortex), “↑ ^b”; in assay [3] (Striatum), “↑ ^b”. The “DA levels in dialysate” value in assay [4] was “significant increase of DA levels in dialysate”. Further, the “preference to novel mouse (NM) over familiar mouse (FM) vs VEH-treated BTBR mice” value with BTBR mice [5] is recorded as “enhanced preference to stranger NM over FM”. In the assay on BTBR mice [6], the “abnormal anxiety observed by BTBR mice” value was “failed to restore the abnormal anxiety”. Also, the “time spent in the periphery” value with BTBR mice [6] is “no group differences”. Further, the “total distance travelled vs VEH-treated BTBR mice” value with BTBR mice [6] (p < 0.01) is listed as “significantly decreased the total distance travelled”. Moreover, in the assay with BTBR mice [7], the “sociability, time exploring NM compared to NO” value is listed as “markedly increased sociability”. The “exploring time spent with NM vs VEH-treated BTBR mice” value in the assay on BTBR mice [7] (p < 0.001) is given as “significantly improved exploring time spent with NM”.
